Results from patent US20180200331A1, “BST-2 AS A THERAPEUTIC TARGET AND DIAGNOSTIC MARKER FOR BREAST CANCER GROWTH AND METASTASIS” (University of Iowa Research Foundation, priority 2015, published 2018).

Tests used:
4T1 cells [1] = experiment: Orthotopic implantation of 4T1 cells in BALB/c mice; type: in vivo
Procedure: (§1) Five-week-old C57BL/6NCr and BALB/cAnNCr female mice were used. Mice were sacrificed when they became moribund. Tumor volume (TV) was calculated as: TV=0.5(length*width2). Tumor latency was calculated as the number of tumor-free injected mice/number of injected mice×100. To assess morbidity, the following clinical score ranking was used: (0) no abnormal clinical signs, (1) ruffled fur but lively, (2) ruffled fur, activity level slowing, sick, (3) ruffled fur, eyes squeezed shut, hunched, hardly moving, very sick, (4) moribund and (5) dead. Experiments involving mice were approved by the University of Iowa Animal Care and Use Committee (IACUC).
(§2) Prior to imaging, mice were anesthetized, weighed and injected intraperitoneally with D-luciferin. Mice were imaged using the Xenogen IVIS three dimensional optical imaging system (Caliper Life Sciences, Hopkinton, Mass., USA). Luciferase was quantified with Living Image Software (Caliper Life Sciences).

E0771 cells [2] = experiment: Orthotopic implantation of E0771 cells in C57BL/6 mice; type: in vivo
Procedure: as §1, §2

mammary cancer cells = experiment: Transformation assay (soft agar colony formation); type: cell-based, mouse; details: compared to shControl
Procedure: Agar was mixed in Roswell Park Memorial Institute medium (RPMI) with 20% FBS. A total of 500 μl of 0.5% agar was added to 24-well plate and allowed to solidify. Cells were plated at 1,250 cells/well in 500 μl of 0.35% agarose. Some 250 μl of the appropriate growth medium was added on top of the agarose layer. Growth medium was replaced twice a week. Colonies were stained with crystal violet and imaged. Colonies from five different fields were counted and averaged.

E0771 cells [3] = experiment: Boyden chamber assay; type: cell-based, mouse; details: 20 hours
Procedure: The apical chamber of 24-well cell culture inserts (Merck Millipore, Billerica, Mass., USA) were seeded with previously starved sh137, sh413 or shControl transduced E0771 cells (150,000) in serum-free medium. Culture medium containing 30% FBS was added to the basal chamber of the unit and cells were allowed to migrate through the membranous barrier for 20 hours at 37° C. Non-migrated cells were washed off, migrated cells were fixed with 4% PFA for 5 minutes, washed twice with 1×PBS, permeabilized with 100% methanol for 25 minutes, labeled with Giemsa stain (for 15 minutes at room temperature) and imaged using a Nikon Eclipse Ti microscope adjusted with an X-cite series 120 LED fluorescence microscope light source and a Nikon digital sight camera. Images were processed using Image J software. Cells from five different fields were counted and averaged.

E0771 or 4T1 cells = experiment: Cell invasion assay (Matrigel); type: cell-based, mouse; details: 24 h
Procedure: The apical chamber of 24-well cell culture inserts (Merck Millipore) were coated with 3 mg/ml of Matrigel (100 μl) (Sigma-Aldrich) and allowed to solidify for 5 hours. A total of 100,000 sh413- or shControl-transduced E0771 or 4T1 cells in serum-free medium were plated on top of the Matrigel layer. Culture medium containing 10% FBS and 5 μg/ml fibronectin (adhesive substrate) (Sigma-Aldrich) was added to the basal chamber of the unit (600 μl) and cells were allowed to invade through the membranous barrier for 24 hours at 37° C. Noninvasive cells were washed off; invasive cells were fixed with 4% PFA, permeabilized with 100% methanol, labeled with Giemsa stain and imaged as described in the previous paragraph. Images were processed using Image J software. Cells from five different fields were counted and averaged.

E0771 and 4T1 cells = experiment: BrdU assay; type: cell-based, mouse
Procedure: A total of 5,000 cells were plated in 96-well plates for 24 hours. Bromodeoxyuridine or 5-bromo-2′-deoxyuridine (BrdU) (Calbiochem, Billerica, Mass., USA) assay was carried out according to the manufacturer's instructions. Absorbance at 450 nm was read using a Tecan Infinite plate reader. In parallel, 150,000 cells were plated in 24-well plates for 24 hours. Cells were incubated with BrdU label (1:2000) for 20 hours, treated with a fixative/denaturing solution (30 minutes) and incubated with an anti-BrdU antibody (1:1000) and rat anti-mouse BST-2 antibody (1:200, eBioscience) for 1 hour at room temperature. Cells were washed and incubated with Alexa Fluor 594 anti-rat (Invitrogen, Waltham, Mass., USA) and Alexa Fluor 488 anti-mouse (Invitrogen) secondary antibodies for 30 minutes at room temperature. Cells were stained with 4′,6-diamidino-2-phenylindole (DAPI)-containing Vectashield (Vector Laboratories, Burlingame, Calif., USA) and imaged using a Zeiss 710 confocal microscope (Carl Zeiss, Oberkochen, Germany). Images were processed using Image J software. BrdU label, fixative/denaturing solution, and anti-BrdU antibody were from BrdU (Calbiochem) assay.

E0771 cells [4] = experiment: MTT assay, E0771; type: cell-based, mouse
Procedure: (§3) A total of 5,000 cells stably expressing sh137, sh413, or shControl were plated in 96-well plates. Cells were then incubated with 5 mg/ml MTT reagent for 3.5 hours followed by addition of MTT solvent (0.1% NP-40 and 4 mM HCl in isopropanol) and rocking for 15 minutes. Absorbance at 590 nm was read using a Tecan Infinite M200 Pro plate reader.

4T1 cells [5] = experiment: MTT assay, 4T1; type: cell-based, mouse
Procedure: as §3

Substance: sh413: BST-2-targeting shRNA (SEQ ID NO:4), delivered by lentiviral particles (CCGGGCTTGAGAATGAAGTCACGAACTCGAGTTCGTGACTTCATTCTCAAGCTTTTTG)
- median overall survival (OS) (4T1 cells [1]; Kaplan-Meier): undefined
- survival area under the curve (AUC) (4T1 cells [1]; Kaplan-Meier): 3,900
- number of tumors in intestine and mesentery (4T1 cells [1]; average of all mice): six
- mammary tumor latency (4T1 cells [1]; compared to shControl cells): increased mammary tumor latency
- tumor volume over time (4T1 cells [1]; compared to shControl tumors): significantly lower
- mice survived to end of experiment (4T1 cells [1]; day 45): 14 out of 15
- incidence of metastases to the liver (4T1 cells [1]; mouse, in vivo): 46%
- incidence of metastases to the lung (4T1 cells [1]; mouse, in vivo): 40%
- mice spared of ascites and splenomegaly (4T1 cells [1]; mouse, in vivo): 14 out of 15
- average tumor mass (4T1 cells [1]; n=15, at necropsy): 0.37 g
- median overall survival (OS) (E0771 cells [2]; Kaplan-Meier): 23 days
- survival area under the curve (AUC) (E0771 cells [2]; Kaplan-Meier): 2,679
- malignant ascites (E0771 cells [2]; n=10): prevented the development of malignant ascites
- colony numbers in soft agar (mammary cancer cells): reduced colony numbers
- rate of cell migration (Boyden chamber) (E0771 cells [3]): significantly reduced rate of cell migration
- invasion through Matrigel (E0771 or 4T1 cells): reduced the ability of the cells to invade the basement membrane
- cell proliferation (BrdU incorporation) (E0771 and 4T1 cells): no effect on cell proliferation
- cell viability (MTT) (E0771 cells [4]): equally viable
- cell viability (MTT) (4T1 cells [5]): increased cell viability
